From paper PMC4944145, “New paradigms for understanding and step changes in treating active and chronic, persistent apicomplexan infections” (Scientific Reports, 2016)
Values after ≈ are worked out from the molar mass of the structure shown. “Also recorded” adds a separate entry of the source. Read-outs that look alike come from different tables or passages of the source.

What was measured:
[1] = system: P. falciparum Dd2 parasite lines; assay: P. falciparum whole-cell SYBR Green EC50, Dd2 and cytochrome b mutant / scDHODH lines; type: cell-based; details: Plasmodium falciparum
Description: We used the following parasite line from the MR4 repository of the American Type Culture Collection (ATCC): Dd2 (MRA-156). Mutant Dd2 parasites harboring a G33A or G33V substitution in cytochrome b were as reported^S77. Dd2 parasites with a G131S mutation in cytochrome b and transgenic lines expressing a chromosomally integrated copy of the S. cerevisiae DHODH were utilized as previously described^S78. Parasites were cultured by standard methods in RPMI media supplemented with 5% human O^+ serum and 0.25% AlbuMAX® II (Life Technologies 11021–045)^S79.
Drug susceptibility was measured using the SYBR Green method^S75. Twelve point curves based on 2-fold dilutions of the test compound were carried out in triplicate each day and replicated on at least three different days. EC50 values were calculated using a nonlinear regression curve fit in Prism 6.0 for Mac (GraphPad Software, Inc.).

[2] = system: P. falciparum Dd2 parasites; assay: Isobologram, modified fixed ratio drug combinations; type: cell-based, Plasmodium falciparum; details: for interaction in combination with MJM170: Dd2 parasites, synergy combined FIC < 1.0, additivity FIC = 1.0, antagonism FIC > 1.0; for FIC ATV: MJM170 + ATV; for FIC CYG: MJM170 + CYG
Description: Isobologram experiments were performed in similar fashion utilizing the modified fixed ratio methodology^S76. […] EC50 values were calculated as above, and FICs were calculated for each drug combination as described^S76. Synergy was defined as an FIC < 1.0, additivity as FIC = 1.0, and antagonism as FIC > 1.0.

T. gondii cysts = details: cited from earlier work
[3] = system: T. gondii tachyzoites (RH-YFP strain); assay: T. gondii tachyzoite assay (RH-YFP in HFF, fluorescence); type: cell-based; details: Toxoplasma gondii
Description: (§1) Vivo-PMO (Vivo porter linked to morpholinos) to knock down cytochrome b and an off-target PPMO (Vivo porter) were utilized at concentrations of 5 and 10 μM as previously described with both cultures of RH-YFP tachyzoites and EGS^S14. Morpholino sequence for cytochrome b/c knockdown is 5′ […] 3′, and for unrelated sequence, off target, is 5′ […]-[…] 3′.
Human foreskin fibroblasts (HFF) were cultured on a flat, clear-bottomed, black 96-well plate to 90% to 100% confluence. IMDM (1x, [+] glutamine, [+] 25 mM HEPES, [+] Phenol red, 10% FBS [gibco, Denmark]) was removed from each well and replaced with IMDM-C(1x, [+] glutamine, [+] 25 mM HEPES, [−] Phenol red, 10% FBS)[Gibco, Denmark]). Type I RH parasites expressing Yellow Fluorescent Protein (RH-YFP) were lysed from host cells by double passage through a 27-gauge needle. Parasites were counted and diluted to 32,000/mL in IMDM-C. Fibroblast cultures were infected with 3200 tachyzoites of the Type I RH-YFP strain and returned to incubator at 37 °C for 1–2 hours to allow for infection ^S12–15;S18,19;S25. […] The plates were read using a fluorimeter (Synergy H4 Hybrid Reader, BioTek) To ascertain the amount of yellow fluorescent protein, in relative fluorescence units (RFU), as a measure of parasite burden after treatment. […] Data was collected using Gen5 software and analyzed with Excel.

[4] = system: T. gondii bradyzoites (EGS strain); assay: EGS strain bradyzoite (cyst) assay in HFF; type: cell-based, Toxoplasma gondii
Description: as §1
HFF cells were grown in IMDM (1x, [+] glutamine, [+] 25 mM HEPES, [+] Phenol red, 10% FBS, [Gibco, Denmark]) on removable, sterile glass disks in the bottom of a clear, flat-bottomed 24-well plate. Cultures were infected with 3 × 10^4 parasites (EGS strain) per well, in 0.5 mL media and plate was returned to incubator at 37 °C overnight. The following day, the media was removed and clear IMDM and compounds were added to making various concentrations of the drug, to a total volume of 0.5 mL. Two wells were filled with media only, as a control. Plates were returned to the 37 °C incubator for 72 hours.
Efficacy was determined following fixation. Staining was used to determine the numbers of cysts in cultures without and with treatment with the test compounds. Cells were fixed using 4% paraformaldehyde and stained with Fluorescein-labeled Dolichos Biflorus Agglutinin, DAPI, and anti-BAG1, and anti-SAG1. Disks were removed and mounted onto glass slides and visualized using microscopy (Nikon Tl7). Slides were also scanned using a CRi Pannoramic Scan Whole Slide Scanner and viewed using Pannoramic Viewer Software.

P. falciparum = P. falciparum in vitro assay (D6, TM91C235, W2, C2B strains); type: cell-based; details: Plasmodium falciparum
Description: D6 is a drug sensitive strain from Sierra Leone, C235 is a multi-drug resistant strain from Thailand, W2 is a chloroquine resistant strain from Thailand, and C2B has resistance to a variety of drugs including atovaquone. These assays were performed as described^S74.

[5] = HFF toxicity assay (WST-1); type: cell-based; details: human, HFF cells (confluent monolayer)
Description: Toxicity assays were conducted using WST-1 cell proliferation reagent (Roche) as described^S12–15;S18,19. HFF were grown on a flat, clear-bottomed, black 96-well plate. Confluent HFF were treated with inhibitory compounds at concentrations equal to those being tested in challenge assays. Compounds were diluted in IMDM-C, and 20 μl were added to each designated well, with triplicates for each condition. A gradient of 2 fold-decreasing concentrations of DMSO in clear IMDM-C was used as a control. The plate was incubated for 72 hours at 37 °C. 10 μl of WST-1 reagent (Roche) were added to each well and the cells were incubated for 30 to 60 minutes. Absorbance was read using a fluorometer at 420 nm. A higher degree of color change (and absorbance) indicated mitochondrial activity and cell viability.

[6] = system: S. cerevisiae wild type parental AD1-9 strain; assay: S. cerevisiae growth inhibition (disk), wild type; type: cell-based, Saccharomyces cerevisiae; details: glycerol medium, 1mM, 100, 5 and 1 μM
Description: Three S. cerevisiae strains were used: M221Q and M221F cytochrome b mutants and wild type. They share the same nuclear genetic background deriving from AD1–9 (kindly given by M.Ghislain, UCL, Belgium). AD1–9 harbors multiple deletions in the ABC transporter genes that render the strain more sensitive to drugs than standard yeast strains^S65.
Protocol from^S68: Yeast strains were grown over 48 hours at 33 °C in liquid YPG medium [1% yeast extract, 2%(wt/vol) peptone, and 3%(vol/vol) (glycerol). Cultures were diluted to an OD600 of 0.05 and grown for 2 hrs. Cultures were then combined with YPG containing 6% melted agar for a total volume of 15–20 mL and poured onto OmniTray single-well rectangular plates that measured 86 mm by 128 mm (ThermoScientific) . Filter paper disks (7 mm diameter, […]) were placed onto the cooled agar plates. […] A single disk with DMSO on each plate was used as a control. Plates were incubated at 33 °C. Images were obtained after 4 days using GelDoc XR Imaging System (BioRad) and Quantity One software. Drug effect was assessed by the presence and size of a zone of inhibition around the disks.

[7] = system: yeast with a mutation in the Qi site; details: cited from earlier work
[8] = Human microsomal stability
[9] = Mouse microsomal stability
[10] = Aqueous kinetic solubility PBS pH 7.4

For `C[C@H]1[C@H](OC(=O)CCC(=O)O)O[C@@H]2O[C@@]3(C)CC[C@H]4[C@H](C)CC[C@@H]1[C@@]24OO3` [Artesunate], the EC50 ([1]; DD2, Dd2) was 2.95 ± 0.94 nM, the EC50 ([1]; DD2, Dd2-attB) was 4.4 ± 2.3 nM and the EC50 ([1]; DD2, Dd2-scDHODH) was 3.97 ± 2.3 nM. For the same compound, the EC50 ([1]; DD2, Dd2: G33A) was 2.53 ± 0.69 nM, the EC50 ([1]; DD2, Dd2: G33V) was 2.08 ± 1.4 nM and the EC50 ([1]; DD2, Dd2: G131S) was 3.38 ± 0.48 nM.
`O=C1C(O)=C([C@H]2CC[C@H](c3ccc(Cl)cc3)CC2)C(=O)c2ccccc21` [Atovaquone, atovaquone] gave an EC50 ([1]; DD2, Dd2) of 0.461 ± 0.14 nM, an EC50 ([1]; DD2, Dd2-attB) of 1.11 ± 0.27 nM and an EC50 ([1]; DD2, Dd2-scDHODH) of over 50 nM. The EC50 ([1]; DD2, Dd2: G33A) was 0.365 ± 0.053 nM, the EC50 ([1]; DD2, Dd2: G33V) was 3.85 ± 7.1 nM and the EC50 ([1]; DD2, Dd2: G131S) was 0.479 ± 0.17 nM. For the same compound, the “interaction in combination with MJM170” value [2] was “Slight synergy; also recorded: modest synergy”, the “interaction in combination with MJM170” value ([2]; listed as atovoquone) was “modestly synergistic” and the “FIC ATV” value ([2]; ratio 2:8) was 0.82 ± 0.05. For the same compound, the “FIC ATV” value ([2]; ratio 4:6) was 0.72 ± 0.1, the “FIC ATV” value ([2]; ratio 6:4) was 0.52 ± 0.1 and the “FIC ATV” value ([2]; ratio 8:2) was 0.35 ± 0.06. The “effect on cyst burden in mice” value (T. gondii cysts) was “partially, and transiently, limits cyst burden in mice”.
In the case of `Cc1[nH]c2ccccc2c(=O)c1-c1ccc(Oc2ccc(OC(F)(F)F)cc2)cc1` [ELQ 271], the IC50 [3] is reported as 30 nM, the “effect on EGS bradyzoites in cysts in vitro” value [4] is reported as “inhibited EGS in vitro” and the “effect on EGS cysts in vitro” value ([4]; 10 μM) is reported as “reduce the EGS cysts in vitro”. The IC50 ([4]; Toxoplasma gondii, EGS strain cysts in HFF) was 1000 nM, the IC50 (P. falciparum; C2B strain, multi-drug resistant, pronounced resistance to atovaquone) was 130 nM and the IC50 (P. falciparum; D6 strain (Sierra Leone), drug sensitive) was 30 nM. The IC50 (P. falciparum; TM91C235 strain (Thailand), multi-drug resistant) was 90 nM, the IC50 (P. falciparum; W2 strain (Thailand), chloroquine resistant) was 100 nM and the CC50 at 72 h [5] was 20000 nM. The “growth inhibition of wild type yeast” value [6] was “effective”, the “effect on brain cyst numbers in mice” value (T. gondii cysts; mouse model, listed as ELQ271) was “partially reduce cyst numbers in mice” and the “effect on brain cyst numbers in mice” value (T. gondii cysts; mouse model; listed as ELQ) 271) was “reduce, but not eliminate, brain cyst numbers in mice”. For the same compound, the “activity against yeast with a mutation in the Qi site” value [7] was “ineffective”, the solubility (FaSSIF solubility pH 6.5) was 3.4 µM (≈ 1.4 µg/mL) and the half-life ([8]; human, human microsomes) was 2.87 h. The human microsomal stability ([8]; rounded) was 172 min, the mouse microsomal stability [9] was over 200 min and the half-life ([9]; mouse, mouse microsomes) was over 3.33 h. The solubility kinetic [10] was 0.15 µM (≈ 0.0617 µg/mL).
With `CC1(C)N=C(N)N=C(N)N1c1ccc(Cl)cc1` [cycloguanil] the “interaction in combination with MJM170” value [2] was “additive effect”, the “FIC CYG” value ([2]; ratio 2:8) was 0.036 ± 0.01 and the “FIC CYG” value ([2]; ratio 4:6) was 0.089 ± 0.03. For the same compound, the “FIC CYG” value ([2]; ratio 6:4) was 0.2 ± 0.05 and the “FIC CYG” value ([2]; ratio 8:2) was 0.41 ± 0.003.
